# Measured values reported in patent US20250155433A1, “FLUORESCENT SENSORS FOR DETECTION OF SIDEROPHORES AND OTHER MOLECULES PRODUCED BY BACTERIAL PATHOGENS” (Kansas State University Research Foundation, priority 2021, published 2025).
# Where two headings read alike, the source gives them in different places. *1 amine or outer side, *2 acyl side, *3 side chain or, on linkers, in order; H or OH if unused. Where a SMILES comes first, the peptide text is derived from it. Bridges are numbered along the chain shown (N, C = ends). [ ]: non-standard residue; d: D form. X1 = O=C([C@@H]1CCN=C2C(N[*:1])=Cc3cc(O)c(O)cc3N21)[*:2]; Orn(N5-OH,N5-Ac) = CC(=O)N(O)CCC[C@H](N)C(=O)O; X2 = O=CN(O)CCC[C@H](N[*:1])C(=O)[*:2]; Suc = O=C(CCC(=O)[*:2])[*:1]
# How the values were obtained:
# PaeFpvA = biological target: T1, PaeFpvA (Pseudomonas aeruginosa, UniProt P48632, T660C); assay: Fluorescence quenching binding to PaeFpvA-FM sensor; settings: secondary ligands
# T1 construct: expressed in transfected cells; host or cells: E. coli OKN3/OKN13/OKN359/OKN1359 carrying a pITS23 derivative
# Protocol: (§1) Fluorescence modifications. For modifications with maleimide fluorophores, we inoculated E. coli strains OKN3, OKN13, OKN359 or OKN1359, harboring plasmids that encoded a Cys mutant LGP, from frozen stocks into LB, grew them overnight and sub-cultured at 1% into iron-deficient MOPS minimal media, with shaking (200 rpm) at 37° C. for 10-12 h, until late exponential phase. After collecting the cells by centrifugation at 7500×g for 15 min, and washing with 50 mM NaHPO4, pH 6.7, we labeled the Cys-mutant LGP with 5 μM FM in 50 mM NaHPO4, pH 6.7 for 15 min at 37° C. FM. We terminated the labeling reactions with 100 μM β-mercaptoethanol. […] After electrophoresis, we first visualized the fluorescence labeling on a Typhoon 8600 Biomolecular Scanner (GE/Amersham), and then stained the gels with Coomassie blue R (153).
# (§2) Fluorescence spectroscopic binding determinations. We observed fluorophore-labeled cells in an SLM AMINCO 8100 fluorescence spectrometer, upgraded with an OLIS operating system and software (OLIS SpectralWorks, OLIS Inc., Bogart, GA), to control its shutters, polarizers and data collection. We also utilized an OLIS Clarity fluorescence spectrometer for fluorescence assays. […] We performed each measurement in triplicate and calculated the mean value of F/F0 at each ligand concentration. […]
# CRE/ESKAPE pathogens = assay: Decoy sensor measurements of metal complex uptake by bacteria; type: cell-based
# Description: Fluorescence spectroscopic uptake measurements. We employed FD sensors to monitor TonB-dependent uptake of various siderophores by bacterial pathogens. In the fluorescence spectroscopic uptake studies E. coli OKN13 (ΔtonB, ΔfepA) or OKN1359 (ΔtonB, Δfiu, ΔfepA, Δcir) were host strains for pITS23 derivatives carrying single Cys mutants of an LGP of interest. The FLGP were decoy sensors that monitored ferric siderophore uptake by test strains. For each assay we used 10^7 sensor cells (e.g., OKN13/pFepA-FM (53)) in a 2 mL quartz cuvette containing PBS+0.2% glucose at 37° C. After recording fluorescence intensity for 100 seconds, we added an iron complex (e.g., FeEnt) at a final concentration of ˜10 nM. After incubating the sample for 100 seconds, during which time fluorescence was quenched (e.g., ˜60% quenching for EcoFepA_A698C-FM), we added 0.5-2×10^7 cells of the test strain (E. coli MG1655, K. pneumoniae Kp52.145, A. baumannii 17978, P. aeruginosa PA01, E. cloacae) and monitored the time-course of fluorescence emissions at 520 nm for 15-40 minutes, with stirring.
# KpnFepA2380 = assay: Fluorescence quenching binding to KpnFepA2380-FM sensor; set-up: species or system Klebsiella pneumoniae; settings: ferric complexes; Cys residue T255C, FM-labeled; NB = no binding; read-out: Affinity (KD) of sensor KpnFepA 2380
# Protocol: as §1, §2
# AbaPirA = biological target: T2, AbaPirA (Acinetobacter baumannii, UniProt D0C8V9); settings: read-out: Affinity (KD) of sensor AbaPirA; ferric complexes; Cys residue S328C, FM-labeled; NB = no binding
# T2 construct: fused on or other part: EcoFepA signal peptide in place of its own (cleaved on export); fluorescein maleimide on the engineered Cys
# Protocol: For modifications with maleimide fluorophores, we inoculated E. coli strains OKN3, OKN13, OKN359 or OKN1359, harboring plasmids that encoded a Cys mutant LGP, from frozen stocks into LB, grew them overnight and sub-cultured at 1% into iron-deficient MOPS minimal media, with shaking (200 rpm) at 37° C. for 10-12 h, until late exponential phase. After collecting the cells by centrifugation at 7500×g for 15 min, and washing with 50 mM NaHPO4, pH 6.7, we labeled the Cys-mutant LGP with 5 μM FM in 50 mM NaHPO4, pH 6.7 for 15 min at 37° C. […] We terminated the labeling reactions with 100 μM β-mercaptoethanol. […]
# We also utilized an OLIS Clarity fluorescence spectrometer for fluorescence assays. […] We performed each measurement in triplicate and calculated the mean value of F/F0 at each ligand concentration. We plotted 1−F/F0 vs [ligand] and analyzed the data by the 1-site binding model of Grafit 6.0.12 (Erithacus Ltd. West Sussex, UK), that fits data to a single site saturation curve, where the amount of ligand bound is plotted as a function of the amount free:
# For each determination, we measured the extent of fluorescence quenching of an FLGP, when exposed to sequentially increasing concentrations of the listed metal complexes, as plotted in FIGS. 2-4. […]
# AbaBauA = AbaBauA (Acinetobacter baumannii, UniProt Q76HJ9, S407C); assay: Fluorescence quenching binding to AbaBauA-FM sensor
# Protocol: as §1, §2
# EcoFiu = biological target: T3, EcoFiu (Escherichia coli, UniProt P75780, A694C); assay: biochemical; type: binding
# T3 construct: expressed in transfected cells; host or cells: E. coli OKN3/OKN13/OKN359/OKN1359 carrying a pITS23 derivative
# Protocol: (§3) Fluorescence modifications. For modifications with maleimide fluorophores, we inoculated E. coli strains OKN3, OKN13, OKN359 or OKN1359, harboring plasmids that encoded a Cys mutant LGP, from frozen stocks into LB, grew them overnight and sub-cultured at 1% into iron-deficient MOPS minimal media, with shaking (200 rpm) at 37° C. for 10-12 h, until late exponential phase. After collecting the cells by centrifugation at 7500×g for 15 min, and washing with 50 mM NaHPO4, pH 6.7, we labeled the Cys-mutant LGP with 5 μM FM in 50 mM NaHPO4, pH 6.7 for 15 min at 37° C. FM. We terminated the labeling reactions with 100 μM β-mercaptoethanol. After collecting the fluoresceinated cells by centrifugation at 7500×g for 15 min, and washing with 50 mM NaHPO4, pH 6.7, we re-suspended them in PBS plus 0.2% glucose. We either immediately used the labeled cells in spectroscopic experiments, or rested them on ice (up to 24 h), or added glycerol to 15% and stored them (indefinitely) as 1 mL aliquots at −70° C. In the latter case, after thawing the labeled cells we pelleted them by centrifugation in a microfuge, washed them once with and re-suspended them in PBS containing 0.2% glucose. Lastly, for evaluation of protein expression or the extent of FM-labeling we solubilized aliquots of the cell suspensions with sample buffer, and subjected them to SDS-PAGE. After electrophoresis, we first visualized the fluorescence labeling on a Typhoon 8600 Biomolecular Scanner (GE/Amersham), and then stained the gels with Coomassie blue R (153).
# (§4) Fluorescence spectroscopic binding determinations. We observed fluorophore-labeled cells in an SLM AMINCO 8100 fluorescence spectrometer, upgraded with an OLIS operating system and software (OLIS SpectralWorks, OLIS Inc., Bogart, GA), to control its shutters, polarizers and data collection. We also utilized an OLIS Clarity fluorescence spectrometer for fluorescence assays. For binding determinations we deposited 2.5×10^7 labeled cells in a quartz cuvette (final volume, 2 mL) with stirring at 37° C., measured the initial fluorescence (F0), and then added increasing concentrations of an iron complex while monitoring the quenching of fluorescence emissions (F) at 520 nm. We performed each measurement in triplicate and calculated the mean value of F/F0 at each ligand concentration. We plotted 1−F/F0 vs [ligand] and analyzed the data by the 1-site binding model of Grafit 6.0.12 (Erithacus Ltd. West Sussex, UK), that fits data to a single site saturation curve, where the amount of ligand bound is plotted as a function of the amount free:
# (§5) These plots yielded KD values for each of the receptor-ligand interactions, with associated standard errors.
# (§6) Table 1 lists KD values from analysis of fluorescence quenching with ferric or apo (parenthetic values) siderophores or porphyrins. For each determination, we measured the extent of fluorescence quenching of an FLGP, when exposed to sequentially increasing concentrations of the listed metal complexes, as plotted in FIGS. 2-4. We performed each experiment 2 or 3 times. The tabulated KD values are from single, representative experiments, in which we collected each data point in triplicate, plotted F/F0 vs [ligand] for each quenching titration, and fitted the curves to a single site binding model using Grafit 6.012 (Erithacus Ltd, […], UK).
# EcoCir = biological target: T4, EcoCir (Escherichia coli, UniProt P17315, G512C); assay: biochemical; type: binding
# T4 construct: expressed in transfected cells; host or cells: E. coli OKN3/OKN13/OKN359/OKN1359 carrying a pITS23 derivative
# Protocol: as §3, §4, §5, §6
# KpnIroN = KpnIroN (Klebsiella pneumoniae, UniProt A0ACD7U953, T234C); assay: Fluorescence quenching binding to KpnIroN-FM sensor; settings: read-out: Affinity (KD) of sensor KpnIroN; ferric complexes; Cys residue T210C, FM-labeled; NB = no binding
# Protocol: as §1, §2
# AbaPiuA = AbaPiuA (Acinetobacter baumannii, UniProt D0CAH3, S724C); assay: Fluorescence quenching binding to AbaPiuA-FM sensor
# Protocol: as §3, with “In the latter case, after thawing the labeled cells we pelleted them by centrifugation in a microfuge, washed them once with and re-suspended them in PBS containing 0.2% glucose. Lastly, for evaluation of protein expression or the extent of FM-labeling we solubilized aliquots of the cell suspensions with sample buffer, and subjected them to SDS-PAGE.” left out
# as §4, with “We plotted 1−F/F0 vs [ligand] and analyzed the data by the 1-site binding model of Grafit 6.0.12 (Erithacus Ltd. West Sussex, UK), that fits data to a single site saturation curve, where the amount of ligand bound is plotted as a function of the amount free:” left out
# (§7) Table 1 lists KD values from analysis of fluorescence quenching with ferric or apo (parenthetic values) siderophores or porphyrins. […]
# EcoIutA = biological target: T5, EcoIutA (Escherichia coli, UniProt P14542, T573C); assay: Fluorescence quenching binding to EcoIutA-FM sensor; settings: other ferric hydroxamates
# T5 construct: expressed in transfected cells; host or cells: E. coli OKN3/OKN13/OKN359/OKN1359 carrying a pITS23 derivative
# Protocol: as §3
# as §4, with “free: […]” for “free:”
# as §7
# [1] = biological target: T6, HsaSCN (human siderocalin) (Homo sapiens, UniProt P80188, Q148C); assay: Fluorescence quenching binding to purified HsaSCN-FM sensor
# T6 construct: adds a 6H-tag at either the N- or C-termini of the mature proteins; 6-His (N); made in house; host or cells: E. coli BL21 (pET28), IPTG-induced; purified on Talon Superflow
# EcoFhuA = EcoFhuA (Escherichia coli, UniProt P06971); assay: Fluorescence quenching binding to EcoFhuA-FM sensor
# Protocol: as §3
# as §4, with “free: […]” for “free:”
# as §7
# KpnFyuA = assay: Fluorescence quenching binding to KpnFyuA-FM sensor; set-up: species or system Klebsiella pneumoniae
# Protocol: as §3, with “In the latter case, after thawing the labeled cells we pelleted them by centrifugation in a microfuge, washed them once with and re-suspended them in PBS containing 0.2% glucose. Lastly, for evaluation of protein expression or the extent of FM-labeling we solubilized aliquots of the cell suspensions with sample buffer, and subjected them to SDS-PAGE.” left out
# as §4, with “We plotted 1−F/F0 vs [ligand] and analyzed the data by the 1-site binding model of Grafit 6.0.12 (Erithacus Ltd. West Sussex, UK), that fits data to a single site saturation curve, where the amount of ligand bound is plotted as a function of the amount free:” left out
# as §7
smiles,measurement,setting,value
"O=C(N[C@H]1COC(=O)[C@@H](NC(=O)c2cccc([O-])c2[O-])COC(=O)[C@@H](NC(=O)c2cccc([O-])c2[O-])COC1=O)c1cccc([O-])c1[O-].[Fe+3] [FeEnt, ferric enterobactin]",Binding by PaeFpvA,PaeFpvA,weakly bound
same,Transport rate,CRE/ESKAPE pathogens; iron deficient Gram (−) bacteria with maximally expressed chromosomal FepA,~50 pMol/10^9 cells/min
same,Kd,KpnFepA2380,12800 nM
CC(C)(O/N=C(\C(=O)N[C@@H]1C(=O)N2C(C(=O)[O-])=C(C[N+]3(CCNC(=O)c4ccc([O-])c([O-])c4Cl)CCCC3)CS[C@H]12)c1csc(N)n1)C(=O)[O-].[Fe+3] [FeFDC],Kd,AbaPirA,4800 nM
same,Kd,AbaBauA,181000 nM
same,Kd,EcoFiu,540 nM
same,Kd,EcoCir,60 nM
same,Kd,KpnIroN,580 nM
same,Kd,AbaPiuA,57000 nM
O=C(N[C@H]1COC(=O)[C@@H](NC(=O)c2cc([C@@H]3O[C@H](CO)[C@@H](O)[C@H](O)[C@H]3O)cc(O)c2[O-])COC(=O)[C@@H](NC(=O)c2cc([C@@H]3O[C@H](CO)[C@@H](O)[C@H](O)[C@H]3O)cc(O)c2[O-])COC1=O)c1cccc(O)c1[O-].[Fe+3] [FeGEnt],Binding by AbaPiuA,AbaPiuA,did not bind
C[C@@H](O)[C@@H]1NC(=O)[C@H](CCCN([O-])C=O)NC(=O)[C@@H](NC(=O)[C@H](CCCN([O-])C=O)NC(=O)[C@@H](CO)NC(=O)[C@H](CCCNC(=N)N)NC(=O)[C@@H](CO)NC(=O)[C@@H]2CCN=C3C(NC(=O)CCC(=O)O)=Cc4cc(O)c([O-])cc4N32)CCCCNC(=O)[C@H]([C@@H](C)O)NC1=O.[Fe+3] [FePvd] (Suc-[X1][dS]R[dS][X2]K[X2]TT; lactam 6-C),TonB-dependent uptake by test strains,"CRE/ESKAPE pathogens; decoy sensors in TonB-deficient E. coli, 37° C., strains grown in iron-deficient MOPS",exclusive transport of FePvd by P. aeruginosa
CC(=O)N(O)CCCCCNC(=O)CCC(=O)N(O)CCCCCNC(=O)CCC(=O)N(O)CCCCCN.[Fe+3] [FxB],Binding by IutA,EcoIutA,did not measurably bind
same,Kd,"[1]; read-out: Affinity (KD) of sensor HsaSCN, ferric complexes and porphyrins, Cys residue Q128C, FM-labeled purified protein, NB = no binding",175 nM
same,Kd,"[1]; read-out: KD, HsaSCN-FM",180 nM
same,Kd,"EcoFhuA; read-out: Affinity (KD) of sensor EcoFhuA, ferric complexes, Cys residue D396C, FM-labeled, NB = no binding",100000 nM
same,Kd,"KpnFyuA; ferric complexes, Cys residue S631C, FM-labeled, NB = no binding, read-out: Affinity (KD) of sensor KpnFyuA",277000 nM
same,Binding by KpnFyuA,KpnFyuA; secondary ligands,weakly bound
"CC(C)(C1=N[C@@](C)(C(=O)O)CS1)[C@H](O)[C@@H]1CSC([C@H]2CSC(c3ccccc3O)=N2)N1 (stereo partly shown) [Ybt, yersiniabactin]",Kd,"KpnFyuA; apo (parenthetic value), S631C, read-out: Affinity (KD) of sensor KpnFyuA, apo siderophore",120 nM
"CC(=O)N(O)CCC[C@@H]1NC(=O)CNC(=O)CNC(=O)CNC(=O)[C@H](CCCN(O)C(C)=O)NC(=O)[C@H](CCCN(O)C(C)=O)NC1=O [apoFc] (cyclo(GGG[Orn(N5-OH,N5-Ac)][Orn(N5-OH,N5-Ac)][Orn(N5-OH,N5-Ac)]))",Kd,"EcoFhuA; read-out: Affinity (KD) of sensor EcoFhuA, apo siderophore, apo (parenthetic value), D396C",200 nM
